Measurements taken from US20080261994A1, “CYCLOPROPANE COMPOUNDS AND PHARMACEUTICAL USE THEREOF” (Japan Tobacco Inc., priority 2003, published 2008).
Like-named read-outs stand apart in the source and are kept apart here.

What was measured:
Type in all cases: biochemical
aggrecanase-1 = target: T1, aggrecanase-1 (Homo sapiens, UniProt O75173); assay: Aggrecanase-1 inhibitory action (Particle Assay, GAG release from aggrecan-containing polyacrylamide particles)
T1 sequence (O75173 213-837): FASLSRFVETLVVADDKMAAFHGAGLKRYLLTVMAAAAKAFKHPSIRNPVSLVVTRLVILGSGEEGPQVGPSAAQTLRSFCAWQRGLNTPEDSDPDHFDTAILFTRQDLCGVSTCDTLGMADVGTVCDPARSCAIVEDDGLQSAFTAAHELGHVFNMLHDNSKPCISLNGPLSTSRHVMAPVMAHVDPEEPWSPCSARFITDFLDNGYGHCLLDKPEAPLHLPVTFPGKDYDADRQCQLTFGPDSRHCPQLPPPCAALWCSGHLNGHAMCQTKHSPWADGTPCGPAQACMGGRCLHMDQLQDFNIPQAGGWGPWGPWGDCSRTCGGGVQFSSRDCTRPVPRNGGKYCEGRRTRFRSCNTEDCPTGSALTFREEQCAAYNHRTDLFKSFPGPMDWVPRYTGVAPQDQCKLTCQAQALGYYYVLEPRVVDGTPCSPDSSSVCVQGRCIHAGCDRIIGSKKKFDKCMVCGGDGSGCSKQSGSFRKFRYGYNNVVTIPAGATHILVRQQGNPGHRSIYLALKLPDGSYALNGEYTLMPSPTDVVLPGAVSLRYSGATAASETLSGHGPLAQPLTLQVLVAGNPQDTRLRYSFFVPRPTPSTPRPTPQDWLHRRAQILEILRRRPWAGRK
Method in brief: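 Readout was dimethylmethylene blue absorbance (595 nm) of glycosaminoglycan liberated into supernatant, calibrated with whale chondroitin sulfate. Substrate was aggrecan in polyacrylamide particles, digested 15 h at 37° C in Tris-HCl; TC50 (μM) derived from inhibition relative to no-enzyme and no-inhibitor controls.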

MMP-1 = target: T2, MMP-1 (Homo sapiens, UniProt P03956); assay: MMP-1 inhibitory action (Type I collagen Activity Measurement kit, FITC-labeled collagen type I)
T2 sequence (P03956 100-469): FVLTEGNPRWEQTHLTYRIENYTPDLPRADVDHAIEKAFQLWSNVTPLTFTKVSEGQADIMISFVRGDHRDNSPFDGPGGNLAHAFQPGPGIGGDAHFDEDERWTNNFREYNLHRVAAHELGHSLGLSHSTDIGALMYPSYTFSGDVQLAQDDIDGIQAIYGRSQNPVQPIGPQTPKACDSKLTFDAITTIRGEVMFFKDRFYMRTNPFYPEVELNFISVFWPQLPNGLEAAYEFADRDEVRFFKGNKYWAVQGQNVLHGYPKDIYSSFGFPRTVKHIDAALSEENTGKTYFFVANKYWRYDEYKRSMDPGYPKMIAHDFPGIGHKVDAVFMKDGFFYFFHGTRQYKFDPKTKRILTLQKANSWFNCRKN

Recombinant Human MMP-13 = target: T3, Recombinant Human MMP-13 (Homo sapiens, UniProt P45452); assay: MMP-13 inhibitory activity (MMP-13 specific fluorescent substrate with quencher)
T3 construct: purchased R&D systems 511-MM
Method in brief: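 IC50 (μM) derived from % inhibition, normalised to wells without enzyme and without inhibitor, fluorescence read at 325/405 nm. Enzyme and compound preceded addition of the quenched 7-MCA…DPA substrate; Tris-HCl buffer, 25 °C for 1 h, acetic-acid stop.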

[1] = aggrecanase-1 inhibitory action, read-out: IC50 AG1 (Experimental Example 1)
[2] = MMP-1 inhibitory action, FITC-labeled collagen type I, 37° C. for 3 hr, read-out: IC50 MMP1 (Experimental Example 2)
[3] = Recombinant Human MMP-13, fluorescent substrate, 25° C. for 1 h, read-out: IC50 MMP13 (Experimental Example 3)
[4] = Experimental Example 1, read-out: IC50 AG1
[5] = Experimental Example 2, read-out: IC50 MMP1
[6] = Experimental Example 3, read-out: IC50 MMP13

IC50 (aggrecanase-1; [1]) [µM] | IC50 (MMP-1; [2]) [µM] | IC50 (Recombinant Human MMP-13; [3]) [µM] | IC50 (aggrecanase-1; [4]) [µM] | IC50 (MMP-1; [5]) [µM] | IC50 (Recombinant Human MMP-13; [6]) [µM] | SMILES
< 0.1 | ≥ 1 | < 1 | – | – | – | O=C(O)c1cccc(C2CC2(NS(=O)(=O)c2ccc(-c3ccc(Cl)cc3)s2)C(=O)O)c1 (stereo not drawn) [Example 1-113]
< 0.1 | < 1 | < 0.1 | – | – | – | O=C(O)C1(NS(=O)(=O)c2ccc(-c3cc(C(F)(F)F)on3)s2)CC1c1cccc(NCc2cccnc2)c1 (stereo not drawn) [Example 2-213]
– | – | – | ≥ 1 | ≥ 10 | ≥ 10 | Cc1cc(N2CCN(S(=O)(=O)N[C@@]3(C(=O)O)C(C)[C@@H]3c3ccccc3)CC2=O)no1 (stereo partly drawn) [Example 2-476]
< 0.1 | ≥ 10 | < 0.1 | – | – | – | CC(C)(O)COc1cccc(C2CC2(NS(=O)(=O)c2ccc(-c3ccc(Cl)cc3)s2)C(=O)O)c1 (stereo not drawn) [Example 2-42]
< 1 | ≥ 10 | < 1 | – | – | – | O=C(O)C1(NS(=O)(=O)c2ccc(-c3ccc(O)cc3)s2)CC1c1ccccc1 (stereo not drawn) [Example 2-65]
< 1 | ≥ 10 | < 0.1 | – | – | – | O=C(O)[C@]1(NS(=O)(=O)c2ccc(-c3cc(C(F)F)on3)cc2)C[C@@H]1c1ccccc1 [Example 2-152]
< 0.1 | < 1 | < 0.1 | – | – | – | CC1[C@H](c2ccccc2)[C@]1(NS(=O)(=O)c1ccc(-c2ccc(Cl)cc2)s1)C(=O)O (stereo partly drawn) [Example 2-262]
≥ 10 | ≥ 10 | ≥ 1 | – | – | – | O=C(O)[C@]1(NS(=O)(=O)c2ccc(-c3nc(C(F)(F)F)cs3)s2)C[C@@H]1c1ccccc1 [Example 2-60]
– | – | – | ≥ 1 | ≥ 1 | ≥ 1 | CN(c1ccccc1)c1ccc(S(=O)(=O)N[C@@]2(C(=O)O)C[C@]2(C)c2ccccc2)s1 [Example 2-515]
– | – | – | < 1 | ≥ 1 | < 0.1 | O=C(NCC1(c2ccccc2)CC1(NS(=O)(=O)c1ccc(-c2ccc(Cl)cc2)s1)C(=O)O)c1cccnc1 (stereo not drawn) [Example 2-394]
– | – | – | ≥ 1 | ≥ 1 | ≥ 1 | CCNC(=O)N1CCN(S(=O)(=O)N[C@@]2(C(=O)O)C[C@@H]2c2ccccc2)CC1 [Example 2-512]
– | – | – | < 1 | ≥ 1 | < 1 | C[C@]1(c2ccccc2)C[C@@]1(NS(=O)(=O)c1ccc(-c2ccc(O)cc2)s1)C(=O)O [Example 2-582]
< 0.1 | ≥ 1 | < 0.1 | – | – | – | CS(=O)(=O)Nc1cccc(C2CC2(NS(=O)(=O)c2ccc(-c3ccc(Cl)cc3)s2)C(=O)O)c1 (stereo not drawn) [Example 1-130]
< 0.1 | < 1 | < 0.1 | – | – | – | C#Cc1cnn(-c2ccc(S(=O)(=O)N[C@@]3(C(=O)O)[C@H](C)[C@@H]3c3ccccc3)s2)c1 [Example 2-4, (1S,2R,3R)-1-[5-(4-ethynyl-pyrazole-1-yl)-thiophene-2-sulfonylamino]-2-methyl-3-phenyl-cyclopropanecarboxylic acid]
< 0.1 | ≥ 10 | < 0.1 | – | – | – | CN(Cc1cccnc1)c1cccc(C2CC2(NS(=O)(=O)c2ccc(-c3ccc(Cl)cc3)s2)C(=O)O)c1 (stereo not drawn) [Example 2-37]
– | – | – | < 1 | ≥ 1 | ≥ 1 | CC1(c2cccnc2)CC1(NS(=O)(=O)c1ccc(-c2cc(C(F)(F)F)on2)s1)C(=O)O (stereo not drawn) [Example 2-617]
< 0.1 | ≥ 1 | < 1 | – | – | – | C[C@]1(c2ccccc2)C[C@@]1(NS(=O)(=O)c1ccc(-c2ccc(Cl)cn2)s1)C(=O)O [Example 2-131]
< 1 | ≥ 10 | ≥ 1 | – | – | – | O=C(O)[C@@]1(NS(=O)(=O)c2ccc(-c3ccc(Cl)cc3)s2)C[C@H]1c1ccccc1Br [Example 2-168]
≥ 1 | ≥ 1 | < 0.1 | – | – | – | CCCc1cc(-c2ccc(S(=O)(=O)N[C@@]3(C(=O)O)C[C@@H]3c3ccccc3)s2)no1 [Example 2-90]
< 0.1 | ≥ 10 | < 1 | – | – | – | CN(C)C(=O)c1ccccc1C1CC1(NS(=O)(=O)c1ccc(-c2ccc(Cl)cc2)s1)C(=O)O (stereo not drawn) [Example 2-215]

IC50 (aggrecanase-1; [1]) [µM] | IC50 (MMP-1; [2]) [µM] | IC50 (Recombinant Human MMP-13; [3]) [µM] | IC50 (aggrecanase-1; [4]) [µM] | IC50 (MMP-1; [5]) [µM] | IC50 (Recombinant Human MMP-13; [6]) [µM] | SMILES
– | – | – | < 1 | ≥ 10 | < 1 | CC1[C@H](c2ccccc2)[C@]1(NS(=O)(=O)N1CCn2c(nc3cc(Cl)ccc32)C1)C(=O)O (stereo partly drawn) [Example 2-445]
< 1 | ≥ 1 | < 0.1 | – | – | – | CN1CCN(C(=O)CCc2cccc(C3CC3(NS(=O)(=O)c3ccc(-c4cc(C(F)(F)F)on4)s3)C(=O)O)c2)CC1 (stereo not drawn) [Example 2-235]
< 0.1 | ≥ 10 | < 1 | – | – | – | O=C(O)COc1ccccc1C1CC1(NS(=O)(=O)c1ccc(-c2ccc(Cl)cc2)s1)C(=O)O (stereo not drawn) [Example 1-139]
< 1 | ≥ 10 | < 1 | – | – | – | O=C(O)C1(NS(=O)(=O)c2ccc(-c3ccc(Cl)cc3)s2)CC1COc1ccccc1 (stereo not drawn) [Example 2-52]
– | – | – | < 0.1 | ≥ 1 | < 0.1 | CC(C)C(=O)NCCCC1(c2ccccc2)CC1(NS(=O)(=O)c1ccc(-c2ccc(Cl)cc2)s1)C(=O)O (stereo not drawn) [Example 2-319]
< 0.1 | ≥ 1 | < 0.1 | – | – | – | O=C(O)C1(NS(=O)(=O)c2ccc(-c3ccc(Cl)cc3)cc2)CC1c1cccc(NCc2cccnc2)c1 (stereo not drawn) [Example 1-3]
– | – | – | < 0.1 | < 1 | ≥ 1 | CC1(c2cccc(S(C)(=O)=O)c2)CC1(NS(=O)(=O)c1ccc(-c2cc(C(F)(F)F)on2)s1)C(=O)O (stereo not drawn) [Example 2-614]
– | – | – | < 1 | ≥ 1 | < 0.1 | NCCc1ccc([C@H]2C[C@@]2(NS(=O)(=O)c2ccc(-c3cc(C(F)(F)F)on3)s2)C(N)=O)cc1 [Example 2-300]
– | – | – | < 0.1 | ≥ 1 | ≥ 1 | O=C(O)CSCC1(c2ccccc2)CC1(NS(=O)(=O)c1ccc(-c2cc(C(F)(F)F)on2)s1)C(=O)O (stereo not drawn) [Example 2-410]
– | – | – | < 1 | ≥ 1 | < 0.1 | CC1C(c2ccccc2)C1(NS(=O)(=O)c1ccc(-c2cccc(O)c2)s1)C(=O)O (stereo not drawn) [Example 2-509]
< 1 | ≥ 10 | < 1 | – | – | – | CCC1(c2ccccc2)CC1(NS(=O)(=O)c1ccc2c(c1)Cc1cc(F)ccc1-2)C(=O)O (stereo not drawn) [Example 2-146]
– | – | – | ≥ 1 | ≥ 10 | ≥ 10 | O=C(O)C1(NS(=O)(=O)c2ccc(-c3cc(C(F)(F)F)on3)s2)CC1c1cc(CCO)on1 (stereo not drawn) [Example 2-316]
– | – | – | < 1 | ≥ 1 | < 0.1 | O=C(O)C1(NS(=O)(=O)c2ccc(-c3cc(C(F)(F)F)on3)s2)CC1c1cccc(CO)c1 (stereo not drawn) [Example 2-283]
< 0.1 | ≥ 10 | < 0.1 | – | – | – | O=C(O)C1(NS(=O)(=O)c2ccc(-c3ccc(Cl)cc3)s2)CC1c1ccccc1OCc1cccnc1 (stereo not drawn) [Example 2-22]
≥ 10 | ≥ 10 | ≥ 10 | – | – | – | O=C(O)c1ccc(S(=O)(=O)NC2(C(=O)O)CC2c2ccccc2)s1 (stereo not drawn) [Example 2-103]
– | – | – | < 1 | ≥ 1 | ≥ 10 | CC1[C@H](c2ccccc2)[C@]1(NS(=O)(=O)N1CCCN(c2ccc(F)cc2)CC1)C(=O)O (stereo partly drawn) [Example 2-472]
– | – | – | < 1 | ≥ 10 | ≥ 1 | C[C@]1(c2ccccc2)C[C@@]1(NS(=O)(=O)c1ccc(-c2ccc3c(c2)OCCO3)s1)C(=O)O [Example 2-485]
– | – | – | < 0.1 | ≥ 1 | < 1 | O=C(O)C1(NS(=O)(=O)c2ccc(-c3cc(C(F)(F)F)on3)s2)CC1(CN1CCOCC1)c1ccccc1 (stereo not drawn) [Example 2-322]
< 1 | ≥ 10 | < 1 | – | – | – | O=C(O)C1(NS(=O)(=O)c2ccc(-c3ccc(Cl)cc3)s2)CC1c1cccc(OCCN2CCOCC2)c1 (stereo not drawn) [Example 2-197]
